Measurements reported in patent publication US20230192607A1, “TRANSCRIPTIONAL ENHANCED ASSOCIATE DOMAIN (TEAD) TRANSCRIPTION FACTOR INHIBITORS AND USES THEREOF” (Dana-Farber Cancer Institute, Inc., priority 2019, published 2023).
“Also recorded” adds a separate entry of the source.

Tests used:
[1] = test system: EGFR-mutant NSCLC cell lines; assay: Cell viability assay (Cell Titer Glo); format: cell-based, human; conditions: several EGFR-mutant NSCLC cell lines
[2] = test system: EGFR-mutant NSCLC cell lines; assay: Regrowth after drug washout and count of viable dormant cells; format: cell-based, human
Description: To determine number of dormant cells after treatment, viable cells were manually counted from the Incucyte images. A total of 10-12 wells with 3 images per well was analyzed for each condition.

[3] = test system: YAP activity in PC-9 YAP reporter cells; assay: Fluorescent YAP/Hippo pathway reporter assay (Incucyte live-cell imaging); format: cell-based, human; conditions: for YAP activity (reporter) induced by osimertinib/trametinib: compound added to osimertinib/trametinib
Description: YAP activity -induced mCherry expression was quantified using the Incucyte ZOOM live-cell analysis system. The mCherry signal was normalized to well confluency at each time point. For simultaneous detection of YAP activity and apoptosis, the cells were plated as above, and treated in the presence of CellEvent™ Caspase-3/7 Green ReadyProbes™ Reagent (Molecular Probes) as per manufacturer’s instructions. The mCherry signal as well as the green fluorescence signal was quantified every 2 hours using Incucyte ZOOM.

[4] = test system: EGFR-mutant NSCLC cells; assay: Caspase-3/7 activity monitoring (apoptosis); format: cell-based, human; conditions: combined with osimertinib/trametinib vs osimertinib/trametinib alone
Description: Cells were plated into 96-well plates at 3000 cells/well in 100 µl of growth medium. The next day, drugs were added onto cells in 50 µl containing CellEvent™ Caspase-3/7 Green ReadyProbes™ Reagent (Molecular Probes) as per manufacturer’s instructions (n=5-6 wells / condition). The wells were subsequently scanned every 2 hours using the Incucyte ZOOM live cell analysis system (Essen Bioscience) typically for a total of 72 hours. The acquired fluorescent signal for activated caspase-3/7 was normalized with well confluency at each timepoint (=normalized apoptosis). Peak apoptosis was determined as the highest normalized caspase-3/7 activity value during the assay.

[5] = test system: BMF expression; assay: QPCR analysis of BMF expression; format: cell-based, human; conditions: combined with osimertinib/trametinib, 24 hour treatment
Description: Cells were plated at 15 × 10^4 cells / cm^2, treated the next day, and RNA samples were extracted at specified timepoints using the RNeasy Mini kit (Qiagen). The RNA concentrations were measured with Nanodrop (Thermo Fisher Scientific) and 1 µg of total RNA was used for cDNA synthesis using the QuantiTect Reverse Transcription Kit (Qiagen). The QPCR reactions were set up in 20 µl using Taqman Gene Expression Master Mix (Applied Biosystems, cat. 4369016), Taqman Gene Expression Assays (Applied Biosystems) as per manufacturer’s instructions, and 2 µl of 1:10 diluted cDNA. The following Taqman Gene Expression Assays were used in the study: CTGF (Hs01026927_ml), ANKDR1 (Hs00173317_ml), BMF (Hs00372937 _m1), SNAI1(Hs00195591_m1), SNAI2 (Hs00161904_m1), TWIST1 (Hs00361186_m1), TWIST2 (Hs02379973_s1), ZEB1 (Hs00232783_m1), ZEB2 (Hs00207691_m1), and ACTB (Hs01060665_g1). The reactions were run in StepOne Plus Real-time PCR System (Applied Biosystems) using default reaction settings. The gene expression levels were normalized to ACTB housekeeping gene expression levels in each sample. For the analysis of BMF expression in vivo, RNA was extracted from 25-30 mg snap-frozen tumor samples using RNeasy Mini kit according to the kit protocol. Reverse transcription and gene expression analyses were performed as above.

[6] = target: TEAD2 protein (Homo sapiens, UniProt Q15562); assay: Mass spectrometry analysis of covalent labeling of TEAD2 protein; format: binding; conditions: 20-fold molar excess, 6 hours at 37° C.
Description: TEAD2 protein was incubated with DMSO or a 20-fold molar excess of MYF-01-37 for 6 hours at 37° C. Reactions were then analyzed by LC-MS using a Shimadzu autosampler and LC (Marlborough, MA) coupled to an LTQ ion trap mass spectrometer (ThermoFisher Scientific, San Jose, CA). Protein was injected onto a self packed column (0.5 mm I.D., packed 5 cm POROS 50R2 from Applied Biosystems, Framingham, MA), desalted for 4 minutes with 100% A (A=0.2 M acetic acid in water), eluted with a gradient (0-100% B in 1 minute; A=0.2 M acetic acid in water, B=0.2 M acetic acid in acetonitrile), and introduced to the mass spectrometer by electrospray ionization (spray voltage=4.5 kV). The mass spectrometer acquired full scan MS data (m/z 300-2000). […]
To identify the site of modification, labeled protein was diluted 1:1 with 100 mM ammonium bicarbonate, reduced with 10 mM DTT at 56° C. for 30 minutes, alkylated with 22.5 mM IAA for 30 minutes at room temperature, and then digested with trypsin overnight at 37° C. Tryptic peptides were desalted by C18 (SOLA, ThermoFisher Scientific), dried by vacuum centrifugation, reconstituted in 5% MeCN, 0.1% trifluoroacetic acid, and analyzed by nanoLC-ion mobility MS/MS using a NanoAcquity UPLC system (Waters Corp., Milford, MA) interfaced to a timsTOF Pro mass spectrometer (Bruker, Billerica, MA). […]

[7] = test system: TEAD; assay: Competition pulldown with biotinylated MYF-01-37; format: cell-based; conditions: MDA-MB-231 cells pretreated 6 hours with 10, 25 and 50 µM
Description: MDA-MB-231 cells were incubated for 6 hours with 10, 25 and 50 µM MYF-01-37, followed by cell lysis. The lysates were subjected to pulldown with 50 µM biotinylated MYF-01-37 overnight, and the amount of TEAD pulled down was analyzed by western blotting.

[8] = test system: YAP/TEAD interaction; assay: YAP/TEAD interaction assay (split Gaussia luciferase); format: cell-based; conditions: HEK 293T cells
Description: 293T cells were plated in 24-well plates and transfected with N-GLuc-YAP and C-GLuc-TEAD using TransIT-293 (Mirus Bio). The pCMV-Red Firefly Luc Vector (Life Technologies) was used as an internal control. Cells were treated with indicated concentrations of compounds or vehicle control (DMSO) in duplicates. Luciferase activity was measured by Dual-Luciferase Assay (Promega, Madison, WI) according to the manufacturer’s manual.

[9] = test system: CTGF expression; assay: QPCR analysis of YAP target gene CTGF expression; format: cell-based, human; conditions: 24 hour treatment; for CTGF expression in cells overexpressing TEAD1 C359S mutant: PC-9 cells transduced with TEAD1 C359S
[10] = test system: PC-9, HCC827 and HCC4006 cells
Description: PC-9, HCC827 and HCC4006 were plated into 6-well plates at 50 000 cells / well, and treated the next day with DMSO, 100 nM osimertinib or with the combination of 100 nM osimertinib and 30 nM trametinib in triplicate. […] After staining, cells were imaged (5 images / well), and stained cells were manually counted from the images.

[11] = test system: PC-9 cells; assay: Long-term cell growth assay (well confluency, Incucyte); conditions: continuous treatment with single-agent osimertinib (100 nM)

TEAD2 protein, sequence (Q15562 whole entry): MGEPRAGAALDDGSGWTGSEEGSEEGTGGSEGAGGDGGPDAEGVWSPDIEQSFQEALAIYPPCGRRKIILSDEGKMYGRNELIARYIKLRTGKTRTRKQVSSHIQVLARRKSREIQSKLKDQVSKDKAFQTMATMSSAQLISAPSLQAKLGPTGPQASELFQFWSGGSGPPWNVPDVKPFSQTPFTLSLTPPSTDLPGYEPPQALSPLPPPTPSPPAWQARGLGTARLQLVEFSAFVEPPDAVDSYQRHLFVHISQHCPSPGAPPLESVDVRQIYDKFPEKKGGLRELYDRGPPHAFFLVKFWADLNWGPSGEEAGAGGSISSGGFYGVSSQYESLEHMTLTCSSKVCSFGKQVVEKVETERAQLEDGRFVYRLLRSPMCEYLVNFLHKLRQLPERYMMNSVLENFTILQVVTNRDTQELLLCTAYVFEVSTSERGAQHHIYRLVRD

SMILES	cell viability as a single agent [1]	regrowth after one week triple combination followed by two weeks osimertinib/trametinib vs three-week continuous triple combination ([2]; PC-9 cells)	YAP activity (reporter) induced by osimertinib/trametinib [3]	apoptosis [4]	BMF expression [5]	CTGF expression in cells overexpressing TEAD1 C359S mutant [9]	further results
O=C(CCl)c1ccccc1Nc1cccc(C(F)(F)F)c1 [TED-347]	significant toxicity						
C=CC(=O)N1CCC(Nc2cccc(C(F)(F)F)c2C)C1 (centres unmarked) [MYF-01-37]	minimal impact on cell viability; also recorded: did not demonstrate single-agent toxicity	identical potency	completely suppressed the increased YAP activity	significantly increased apoptosis	robust increase in BMF expression	abrogated	dormant cells after treatment ([2]; PC-9 and HCC4006 cells, 10-day treatment in combination with osimertinib/trametinib vs osimertinib/trametinib alone): dramatic decrease in dormant cells; site of covalent modification [6]: targeted cysteine 380; TEAD pull-down by biotinylated MYF-01-37 from whole-cell lysate [7]: loss of direct TEAD pull-down; YAP/TEAD interaction [8]: inhibition of direct YAP/TEAD interaction; CTGF expression ([9]; PC-9 cells): reduction in canonical YAP target gene CTGF expression
O=c1[nH]c(-c2ccc(C(F)(F)F)cc2)nc2c1CSCC2 [XAV939]		identical potency	completely blocked	robust increase in apoptosis	significantly increased BMF expression	still able to inhibit CTGF expression	number of dormant cells at the time of drug washout ([2]; PC-9 cells, 21-day treatment combined with osimertinib/trametinib vs osimertinib/trametinib alone): dramatic decrease in the number of dormant cells; regrowth of cells after drug washout ([2]; three-week treatment combined with osimertinib/trametinib, then washout): significant reduction in regrowth
C=CC(=O)Nc1cc(Nc2nccc(-c3cn(C)c4ccccc34)n2)c(OC)cc1N(C)CCN(C)C [osimertinib]							cells positive for SA-β-Gal activity [10]: significantly smaller proportion; proportion of YAP^high cells ([3]; 10-day treatment): 40%; proportion of cells with absent YAP signal ([3]; 10-day treatment): 60%; time to re-colonization of wells [11]: ≤ 8 weeks
